Legend:
Carbonic anhydrase 2 = Carbonic anhydrase 2 (Homo sapiens, UniProt P00918); experiment: Esterase Activity Assay; details: pH 7.4
Method: (§1) The enzymatic reaction contained 1.4 mL 0.05 M Tris-SO4 buffer(pH 7.4), 1 mL 3 mM 4-nitrophenylacetate, 0.5 mL H2O and 0.1 mL enzyme solution (total volume, 3.0 mL). A reference measurement was obtained by preparing themixture without the enzyme solution. All measurements were made in triplicate.

Carbonic anhydrase 1 = Carbonic anhydrase 1 (Homo sapiens, UniProt P00915); experiment: Esterase Activity Assay; details: pH 7.4
Method: as §1

Carbonic anhydrase 1, sequence (P00915 whole entry): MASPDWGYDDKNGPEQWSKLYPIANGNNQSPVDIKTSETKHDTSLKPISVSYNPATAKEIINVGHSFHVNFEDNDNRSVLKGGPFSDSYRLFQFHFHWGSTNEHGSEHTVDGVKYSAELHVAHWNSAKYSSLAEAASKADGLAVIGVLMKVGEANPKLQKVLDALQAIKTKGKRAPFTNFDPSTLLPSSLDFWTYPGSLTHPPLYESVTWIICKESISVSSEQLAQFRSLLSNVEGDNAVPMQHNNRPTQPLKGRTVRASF

Cc1ccc(-c2c(C#N)c(N)nc3c2CCCCC3)s1 [CA inhibitor, 5c]
IC50 (Carbonic anhydrase 2): 77 µM
Ki (Carbonic anhydrase 2): 73 µM
IC50 (Carbonic anhydrase 1): 40 µM
Ki (Carbonic anhydrase 1): 30.6 µM

Cc1ccc(-c2c(C#N)c(N)nc3c2CCCCC3)o1 [CA inhibitor, 5f]
IC50 (Carbonic anhydrase 1): 53 µM
Ki (Carbonic anhydrase 1): 58.5 µM

Cc1ccc(-c2c(C#N)c(N)nc3c2CCSC3)o1 [CA inhibitor, 5l]
IC50 (Carbonic anhydrase 1): 53 µM
Ki (Carbonic anhydrase 1): 50.3 µM

Cc1ccc(-c2c(C#N)c(N)nc3c2CCC3)o1 [CA inhibitor, 5d]
IC50 (Carbonic anhydrase 2): 56 µM
Ki (Carbonic anhydrase 2): 41 µM
IC50 (Carbonic anhydrase 1): 33 µM
Ki (Carbonic anhydrase 1): 23.8 µM

Cc1ccc(-c2c(C#N)c(N)nc3c2CCSC3)s1 [CA inhibitor, 5i]
IC50 (Carbonic anhydrase 1): 55 µM
Ki (Carbonic anhydrase 1): 38.4 µM

Cc1ccc(-c2c(C#N)c(N)nc3c2CCCC3)o1 [CA inhibitor, 5e]
IC50 (Carbonic anhydrase 1): 48 µM
Ki (Carbonic anhydrase 1): 89 µM

Cc1ccc(-c2c(C#N)c(N)nc3c2CCCC3)s1 [2-azanyl-4-(5-methylthiophen-2-yl)-5,6,7,8-tetrahydroquinoline-3-carbonitrile]
IC50 (Carbonic anhydrase 2): 99 µM
Ki (Carbonic anhydrase 2): 182 µM
IC50 (Carbonic anhydrase 1): 34 µM
Ki (Carbonic anhydrase 1): 31 µM
